Results reported in US8921367B2 (Amgen Inc., priority 2012, dated 2014).

Columns and labels:
[1] = system: histone H3, a proximal substrate of aurora-B; test: In vivo phosphorylation of histone H3
[2] = Ph I dose escalation: MTD and DLT determination; type: in vivo, human; conditions: once daily oral, 4 days on/10 days off
Excerpt: The dose escalation part of the study was aimed at determining a maximum tolerated dose (MTD) and if necessary the MTD with prophylactic GCSF support (MTD-G), and evaluating the safety, tolerability, pharmacokinetics and pharmacodynamics of AMG 900 in subjects with advanced solid tumors.
A subsequent non-accelerated phase (SNAP) then commenced (≦50% dose escalations once the first grade 2 related toxicity occurred; ≦25% if a DLT occurs) in a standard 3+3 design at the dose level where DLT or possibly related grade 2 toxicity was observed. The percent of dose escalation depended upon toxicities observed in previous cohorts. Intra-subject dose escalation was not allowed. An MTD was determined without prophylactic GCSF support. If neutropenia (or neutropenia related toxicity) was dose limiting, then dose escalation proceeded with prophylactic GCSF support beginning at the dose level at which neutropenia (or neutropenia related toxicity) was dose limiting.

[3] = system: multiple tumor xenografts, including three MDR xenograft models resistant to paclitaxel or docetaxel; test: Growth of tumor xenografts; type: in vivo
CA-125 = CA-125 in ovarian cancer patient of the Ph I trial; type: in vivo, human; conditions: platinum-sensitive ovarian cancer patient; 16 mg once daily, 8 mg cycles 4-15, 12 mg at cycle 16; end of cycle 16
Description: Disease progression by appearance of new bone lesions in CRPC in the dose expansion phase were evaluated with bone scans. Bone scans were performed at baseline, 4 weeks after cycle 1 day 1, 8 weeks after cycle 1 day 1, and every 8 weeks thereafter until disease progression. Efficacy in ovarian cancer and CRPC were evaluated based on the Rustin criteria (1996) and PCWG2 guidelines, respectively. CA-125 in ovarian cancer and PSA in CRPC were collected every 4 weeks.

advanced solid tumors = test: Ph I clinical dose escalation trial of oral AMG 900; tumor response by CT or MRI using RECIST criteria; type: in vivo, human
Excerpt: Some of the objectives for the study included (1) determination of the maximal tolerated dose (MTD) and if necessary, the MTD in conjunction with prophylactic amounts of granulocyte colony stimulating factor (GCSF); (2) to evaluate the PD effects of drug exposure on phospho-histone H3 (serine 10) proteins levels in tumor tissue; (3) to evaluate change in tumor volume by volumetric or MRI analysis; and (4) to evaluate tumor response assessed by CT or MRI using RECIST criteria. The clinical trial was conducted in accordance with the following design/protocol:
This is an open-label, sequential dose escalation study evaluating AMG 900 in subjects with advanced solid tumors. The study is being conducted in 2 parts: Part 1—Dose Escalation and Part 2—Dose Expansion. […] One cycle is defined as 14 days. Thus, 1 cycle=2 weeks (14 days) and DLT window=4 weeks (28 days).
In addition, treatment with proton pump inhibitors or H2 receptor antagonists was withheld at least 48 hours prior to the first dose of each treatment cycle until at least 1 hour after the fourth dose of a treatment cycle. Starting Dose:
In addition, treatment with proton pump inhibitors or H2 receptor antagonists were withheld at least 48 hours prior to the first dose of each treatment cycle until at least 1 hour after the fourth dose of a treatment cycle. One cycle was defined as 14 days. […] The investigator or sub-investigator performed a physical examination of each subject during clinic visits. A review of concomitant medications and an assessment of adverse events were performed at every visit.
Efficacy was assessed by standardized contrast-enhanced CT or MRI and evaluated according to RECIST criteria. RECIST 1.0 and RECIST 1.1 criteria is described in the Journal of National Cancer Institute, Vol. 92, No. 3:205-216, 2000 and European Journal of Cancer 45:228-247, 2009, respectively, both disclosures of which are hereby incorporated herein by reference in their entireties. CT or MRI scans with contrast were acquired at baseline, 4 weeks after cycle 1 day 1, 8 weeks after cycle 1 day 1, and every 8 weeks thereafter until disease progression. Scans were acquired with slice thickness of about 5 mm or less. Baseline imaging studies were performed within 2 weeks prior to study day 1, and where practicable, they were performed as close to the day of enrollment as possible.

AML = test: Ph I AML study of oral AMG 900; type: in vivo, human
Excerpt: The data for both studies are as follows:

solid tumors = conditions: days 1 and 8 or days 1, 2 and 3 of 3-week cycle, cited from earlier work
[4] = system: advanced solid malignancies; conditions: cited from earlier work
[5] = system: advanced refractory solid tumors; conditions: cited from earlier work
advanced solid tumor = conditions: daily dosing 5 or 10 consecutive days in 3-week cycles; cited from earlier work

## Cc1csc(-c2nnc(Nc3ccc(Oc4ncccc4-c4ccnc(N)n4)cc3)c3ccccc23)c1 [AMG 900, N-(4-((3-(2-amino-4-pyrimidinyl)-2-pyridinyl)oxy)phenyl)-4-(4-methyl-2-thienyl)-1-phthalazinamine]
[1]
  phosphorylation of histone H3: blocks the phosphorylation
[2]
  doses at which MTD's and DLT's were observed: greater than 8 mg
[3]
  growth of tumor xenografts: inhibits the growth
CA-125
  decrease in CA-125: 45%
Advanced solid tumors; Patient No. 1, 1 mg once per day oral, 4 days on/10 days off, cholangiocarcinoma, at week 24
  Observed Response to AMG 900: SD at week 24
Advanced solid tumors; Patient No. 2, 8 mg once per day oral, 4 days on/10 days off, prostate, at week 8
  Observed Response to AMG 900: SD at week 8
Advanced solid tumors; Patient No. 3, 16 mg once per day oral, 4 days on/10 days off, ovarian, at week 40
  Observed Response to AMG 900: SD at week 40
Advanced solid tumors; Patient No. 4, 16 mg once per day oral, 4 days on/10 days off, breast, at week 4
  Observed Response to AMG 900: SD at week 4
Advanced solid tumors; Patient No. 5, 24 mg once per day oral, 4 days on/10 days off, colon, at week 8
  Observed Response to AMG 900: SD at week 8
Advanced solid tumors; Patient No. 6, 25 mg once per day oral, 4 days on/10 days off, rectal, at week 56
  Observed Response to AMG 900: PD at week 56
Advanced solid tumors; Patient No. 7, 24 mg once per day oral, 4 days on/10 days off, Medullary thyroid, at week 120
  Observed Response to AMG 900: SD at week 120
Advanced solid tumors; Patient No. 8, 30 mg + GCSF once per day oral, 4 days on/10 days off, endometrial, at Week 64
  Observed Response to AMG 900: PR at Week 64;
Advanced solid tumors; Patient No. 8, 30 mg + GCSF once per day oral, 4 days on/10 days off, endometrial, at week 72
  Observed Response to AMG 900: SD at week 72
Advanced solid tumors; Patient No. 9, 30 mg + GCSF once per day oral, 4 days on/10 days off, chondrosarcoma, at week 40
  Observed Response to AMG 900: SD at week 40
Advanced solid tumors; Patient No. 10, 40 mg + GCSF once per day oral, 4 days on/10 days off, colon, at week 32
  Observed Response to AMG 900: SD at week 32
Advanced solid tumors; Patient No. 11, 40 mg + GCSF once per day oral, 4 days on/10 days off, Non-small cell lung, at week 32
  Observed Response to AMG 900: SD at week 32
Advanced solid tumors; Patient No. 12, 50 mg + GCSF once per day oral, 4 days on/10 days off, thyroid, at week 32
  Observed Response to AMG 900: SD at week 32
Advanced solid tumors; Patient No. 13, 40 mg + GCSF once per day oral, 4 days on/10 days off, prostate, at week 8
  Observed Response to AMG 900: SD at week 8
Advanced solid tumors; once daily oral, 4 days on/10 days off
  lowest once daily dose at which anti cancer activity was observed: 8 mg
Advanced solid tumors; patient with stage IV solid endometrial tumor, 30 mg + GCSF once daily, 4 days on/10 days off, week 24, CT, RECIST 1.0
  decrease of long axis diameter of tumor versus base line diameter on day 1: approximately 50%
Advanced solid tumors; patient with stage IV-B solid ovarian tumor, 30 mg once daily, 4 days on/10 days off, two cycles, week 4, RECIST 1.1
  reduction of short axis diameter of tumor versus base line diameter on day 1: about 30%
Advanced solid tumors; platinum-sensitive ovarian cancer patient, 16 mg once daily, 8 mg cycles 4-15, 12 mg at cycle 16, 4-day on-10 day off, end of cycle 16
  decrease in SLD (sum of long axis diameters) on CT: 16%
Advanced solid tumors; same endometrial solid tumor, 30 mg once daily, week 16 after eight (8) cycles, CT, RECIST 1.1
  reduction of short axis diameter of tumor: up to 40%
AML; Patient No. 14, 80 mg once per day oral, 4 days on/10 days off
  Observed Response to AMG 900: Active
AML; Patient No. 15, 80 mg once per day oral, 4 days on/10 days off
  Observed Response to AMG 900: Active
AML; Patient No. 16, 30 mg once per day oral, 7 days on/7 days off
  Observed Response to AMG 900: Active

## Cc1cc(Nc2ncc(F)c(NC3C4C=CC(C4)C3C(N)=O)n2)ccc1N1CCN(C)CC1 (stereo not drawn) [AS703569]
Solid tumors
  impact on the patient's solid tumors: no positive impact(s)
Solid tumors; various dosages
  tolerability: tolerable

## CCN(CCCOc1ccc2c(Nc3cc(CC(=O)Nc4cccc(F)c4)n[nH]3)ncnc2c1)CCOP(=O)(O)O [AZD1152]
[4]; 2 hour IV infusion every 7 days
  dosage amount safely administered: ≤ 450 mg
[4]; patients with rapidly progressive diseases, within 450 mg dose
  disease response: significantly stabilize disease

## CO[C@@H](C(=O)N1Cc2n[nH]c(NC(=O)c3ccc(N4CCN(C)CC4)cc3)c2C1)c1ccccc1 [Danusertib]
[5]; over 24 hours in 14 day cycles without GCSF
  amount that can be safely administered: ≤ 500 mg/m^2
[5]; within dose of 500 mg/m^2, small cell lung carcinoma, prolonged disease stabilization in other solid tumors
  tumor response: prolonged objective response

## CC(=O)NCC(=O)N1[C@@H]2CC[C@H]1c1ccc(Nc3ncc(C(F)(F)F)c(NC4CCC4)n3)cc12 [PF-03814735]
Advanced solid tumor
  objective response on the tumors: NO objective response
